“Also recorded” adds a separate entry of the source.
Tested on: metastatic MDA-MB-231 breast cancer cells
Experiment: Microfluidic Assay for Quantification of Cell Invasion (MAqCI), migration of breast cancer cells
Format: cell-based
Conditions: 5 µM, 13 hours post administration, MDA-MB-231 cells, compared to vincristine (VC); FIG. 24

For `Fc1ccc([C@@H]2CCNC[C@H]2COc2ccc3c(c2)OCO3)cc1` [paroxetine], the “percentage of migratory cells in MAqCI” value was “down to the levels of non-metastatic cells; also recorded: decreases the percent of migratory cells to the level of non-metastatic cells”.
